Measurements from publication PMC4666356 (2015).

Assays:
[1] = tested on: mt1015 (DNA, G4) GGGCTTGATGTGGGGAGGGGTGTTTAAGGG; assay: fluorescence lifetime; details: qualitative; decay time ~3.3 ns
[2] = tested on: mt6363 (DNA, G4) AGGGACGCGGGCGGGGGATATAGGGT; assay: CD melting at 265 nm; details: 20 mM K+; 4 uM DNA, 8 uM compound

Row | binding [1] | dTm [2] | SMILES
1 | yes | ~ 30 °C | C[n+]1ccccc1/C=C/c1ccc2c(c1)c1cc(/C=C/c3cccc[n+]3C)ccc1n2CCCCCCCCCCCC[N+]1(C)CCCCC1
2 |  | ~ 30 °C | C[n+]1ccccc1/C=C/c1ccc2c(c1)c1cc(/C=C/c3cccc[n+]3C)ccc1n2CCCCCC[N+]1(C)CCCCC1
